Measured values from PubChem BioAssay AID272 (DTP/NCI, 2004).
“And” between values parts separate entries of the source, which are not always exact repeats. Equal values may be shown once. Inconclusive results are not listed.

System: Lewis lung carcinoma i.m., BDF1 mice, T/C %
Experiment: NCI In Vivo Anticancer Drug Screen. Data for tumor model Lewis Lung Carcinoma (intramuscular) in B6D2F1 (BDF1) mice
Method in brief: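 Value is the ratio of a treated-group measurement (T) to the matching vehicle-control measurement (C), using either survival or tumour size in mice bearing transplanted tumours.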

[1] = endpoint: mean tumor weight (est.), dose: 100.0 mg/kg/injection, schedule: Q01DX011 (ip), vehicle: saline with Tween-80, higher = larger tumour
[2] = endpoint: median survival time, dose: 100.0 mg/kg/injection, schedule: Q01DX011 (ip), vehicle: saline with Tween-80, higher = longer survival
[3] = endpoint: median survival time, dose: 4.0 mg/kg/injection, schedule: Q01DX011 (ip), vehicle: saline, higher = longer survival

Compound: CCn1cnc2c(=S)nc[nH]c21
- T/C (endpoint: mean tumor weight (est.), dose: 25.0 mg/kg/injection, schedule: Q01DX011 (ip), vehicle: Klucel (hydroxypropylcellulose) (HPC), higher = larger tumour): 110 % of control
- T/C (endpoint: mean tumor weight, dose: 1.56 mg/kg/injection, schedule: Q01DX011 (ip), vehicle: steriod suspending solution, higher = larger tumour): 81 % of control
- T/C (endpoint: mean tumor weight, dose: 6.25 mg/kg/injection, schedule: Q01DX011 (ip), vehicle: steriod suspending solution, higher = larger tumour): 86 % of control
- T/C (endpoint: median survival time, dose: 0.78 mg/kg/injection, schedule: Q01DX011 (ip), vehicle: Klucel (hydroxypropylcellulose) (HPC), higher = longer survival): 100 % of control
- T/C (endpoint: median survival time, dose: 1.56 mg/kg/injection, schedule: Q01DX011 (ip), vehicle: Klucel (hydroxypropylcellulose) (HPC), higher = longer survival): 104 % of control
- T/C (endpoint: median survival time, dose: 3.12 mg/kg/injection, schedule: Q01DX011 (ip), vehicle: Klucel (hydroxypropylcellulose) (HPC), higher = longer survival): 106 % of control
- T/C (endpoint: median survival time, dose: 6.25 mg/kg/injection, schedule: Q01DX011 (ip), vehicle: Klucel (hydroxypropylcellulose) (HPC), higher = longer survival): 102 % of control and 108 % of control
- T/C (endpoint: median survival time, dose: 12.5 mg/kg/injection, schedule: Q01DX011 (ip), vehicle: Klucel (hydroxypropylcellulose) (HPC), higher = longer survival): 106 % of control
- T/C (endpoint: median survival time, dose: 25.0 mg/kg/injection, schedule: Q01DX011 (ip), vehicle: Klucel (hydroxypropylcellulose) (HPC), higher = longer survival): 95 % of control and 104 % of control

Compound: N[C@H](C(=O)O)[C@H]1ON=C(Cl)[C@@H]1O
- T/C (endpoint: median survival time, dose: 8.0 mg/kg/injection, schedule: Q01DX013 (ip), vehicle: saline, higher = longer survival): 92 % of control
- T/C (endpoint: median survival time, dose: 16.0 mg/kg/injection, schedule: Q01DX013 (ip), vehicle: saline, higher = longer survival): 107 % of control

Compound: Cc1c(O)ccc(=O)n1O
- T/C (endpoint: mean tumor weight (est.), dose: 27.5 mg/kg/injection, schedule: Q01DX011 (ip), vehicle: saline, higher = larger tumour): 99 % of control
- T/C (endpoint: mean tumor weight (est.), dose: 55.0 mg/kg/injection, schedule: Q01DX011 (ip), vehicle: saline, higher = larger tumour): 121 % of control
- T/C (endpoint: mean tumor weight (est.), dose: 110.0 mg/kg/injection, schedule: Q01DX011 (ip), vehicle: saline, higher = larger tumour): 84 % of control
- T/C (endpoint: mean tumor weight (est.), dose: 220.0 mg/kg/injection, schedule: Q01DX011 (ip), vehicle: saline, higher = larger tumour): 79 % of control
- T/C (endpoint: median survival time, dose: 27.5 mg/kg/injection, schedule: Q01DX011 (ip), vehicle: saline, higher = longer survival): 103 % of control
- T/C (endpoint: median survival time, dose: 55.0 mg/kg/injection, schedule: Q01DX011 (ip), vehicle: saline, higher = longer survival): 96 % of control
- T/C (endpoint: median survival time, dose: 110.0 mg/kg/injection, schedule: Q01DX011 (ip), vehicle: saline, higher = longer survival): 98 % of control
- T/C (endpoint: median survival time, dose: 220.0 mg/kg/injection, schedule: Q01DX011 (ip), vehicle: saline, higher = longer survival): 121 % of control

Compound: O=[N+]([O-])c1ccc(N/N=C/CC(O)CO)c([N+](=O)[O-])c1 (stereo unspecified)
- T/C [1]: 57 % of control
- T/C (endpoint: mean tumor weight (est.), dose: 200.0 mg/kg/injection, schedule: Q01DX011 (ip), vehicle: saline with Tween-80, higher = larger tumour): 52 % of control
- T/C [2]: 92 % of control

Compound: CCCCc1ccc(NC(=O)N(CCCl)N=O)cc1
- T/C (endpoint: median survival time, dose: 3.0 mg/kg/injection, schedule: Q07DX003 (ip), vehicle: Klucel (hydroxypropylcellulose) (HPC), higher = longer survival): 112 % of control
- T/C (endpoint: median survival time, dose: 5.0 mg/kg/injection, schedule: Q07DX003 (ip), vehicle: Klucel (hydroxypropylcellulose) (HPC), higher = longer survival): 106 % of control
- T/C (endpoint: median survival time, dose: 14.0 mg/kg/injection, schedule: Q07DX003 (ip), vehicle: Klucel (hydroxypropylcellulose) (HPC), higher = longer survival): 110 % of control
- T/C (endpoint: median survival time, dose: 23.0 mg/kg/injection, schedule: Q07DX003 (ip), vehicle: Klucel (hydroxypropylcellulose) (HPC), higher = longer survival): 87 % of control

Compound: CCCCCCCCCCCC(c1ccccc1)[N+](C)(C)Cc1ccccc1 (stereo unspecified)
- T/C (endpoint: mean tumor weight (est.), dose: 0.25 mg/kg/injection, schedule: Q01DX011 (ip), vehicle: saline, higher = larger tumour): 80 % of control
- T/C (endpoint: mean tumor weight (est.), dose: 0.5 mg/kg/injection, schedule: Q01DX011 (ip), vehicle: saline, higher = larger tumour): 70 % of control
- T/C (endpoint: mean tumor weight (est.), dose: 1.0 mg/kg/injection, schedule: Q01DX011 (ip), vehicle: saline, higher = larger tumour): 61 % of control
- T/C (endpoint: median survival time, dose: 0.25 mg/kg/injection, schedule: Q01DX011 (ip), vehicle: saline, higher = longer survival): 87 % of control
- T/C (endpoint: median survival time, dose: 0.5 mg/kg/injection, schedule: Q01DX011 (ip), vehicle: saline, higher = longer survival): 91 % of control
- T/C (endpoint: median survival time, dose: 1.0 mg/kg/injection, schedule: Q01DX011 (ip), vehicle: saline, higher = longer survival): 120 % of control

Compound: C[C@H]1CN1C1=CC(=O)C(N2C[C@@H]2C)=CC1=O
- T/C (endpoint: median survival time, dose: 0.5 mg/kg/injection, schedule: Q01DX011 (ip), vehicle: saline with Tween-80, higher = longer survival): 102 % of control
- T/C (endpoint: median survival time, dose: 1.0 mg/kg/injection, schedule: Q01DX011 (ip), vehicle: saline with Tween-80, higher = longer survival): 113 % of control
- T/C (endpoint: median survival time, dose: 4.0 mg/kg/injection, schedule: Q01DX011 (ip), vehicle: saline with Tween-80, higher = longer survival): 108 % of control

Compound: CCc1ccc(/C=C/c2ccc(O)c3ncccc23)[n+](C)c1
- T/C (endpoint: mean tumor weight, dose: 4.0 mg/kg/injection, schedule: Q01DX011 (ip), vehicle: saline, higher = larger tumour): 53 % of control
- T/C (endpoint: mean tumor weight, dose: 8.0 mg/kg/injection, schedule: Q01DX011 (ip), vehicle: saline, higher = larger tumour): 61 % of control
- T/C (endpoint: mean tumor weight, dose: 16.0 mg/kg/injection, schedule: Q01DX011 (ip), vehicle: saline, higher = larger tumour): 46 % of control
- T/C [3]: 97 % of control
- T/C (endpoint: median survival time, dose: 8.0 mg/kg/injection, schedule: Q01DX011 (ip), vehicle: saline, higher = longer survival): 116 % of control

Compound: CC1=Nc2ccccc2/C1=C\c1c(C)[nH]c2ccccc12
- T/C (endpoint: mean tumor weight (est.), dose: 25.0 mg/kg/injection, schedule: Q01DX011 (ip), vehicle: saline with Tween-80, higher = larger tumour): 52 % of control
- T/C (endpoint: mean tumor weight (est.), dose: 50.0 mg/kg/injection, schedule: Q01DX011 (ip), vehicle: saline with Tween-80, higher = larger tumour): 68 % of control
- T/C [1]: 29 % of control
- T/C (endpoint: median survival time, dose: 25.0 mg/kg/injection, schedule: Q01DX011 (ip), vehicle: saline with Tween-80, higher = longer survival): 104 % of control
- T/C (endpoint: median survival time, dose: 50.0 mg/kg/injection, schedule: Q01DX011 (ip), vehicle: saline with Tween-80, higher = longer survival): 93 % of control
- T/C [2]: 100 % of control

Compound: CCCCCCCCCCCC[S+](C)C
- T/C (endpoint: median survival time, dose: 2.0 mg/kg/injection, schedule: Q01DX011 (ip), vehicle: saline, higher = longer survival): 100 % of control
- T/C [3]: 114 % of control

Compound: CN=C1N[N+]2=CCCCC2S1 (stereo unspecified)
- T/C (endpoint: median survival time, dose: 40.0 mg/kg/injection, schedule: Q02DX011 (ip), vehicle: saline with Tween-80, higher = longer survival): 99 % of control
- T/C (endpoint: median survival time, dose: 60.0 mg/kg/injection, schedule: Q02DX011 (ip), vehicle: saline with Tween-80, higher = longer survival): 86 % of control
- T/C (endpoint: median survival time, dose: 80.0 mg/kg/injection, schedule: Q02DX011 (ip), vehicle: saline with Tween-80, higher = longer survival): 93 % of control
